According to PMC12567248 (Pharmaceutics, 2025):
Read-outs that look alike come from different tables or passages of the source.

What was measured:
[1] = cited from earlier work
Male Sprague Dawley Rats = assay: Acute oral toxicity, OECD procedure 423; conditions: rat, in vivo
Experimental: Acute oral toxicity was analyzed in accordance with the OECD guidelines for testing chemical compounds using the acute toxic class method (OECD procedure 423). Prior to dosing, 1 mL of the blood was extracted from the test animals (Male Sprague Dawley Rats, 200–250 g) using the tail vein method and was submitted for alanine aminotransferase (ALT), aspartate aminotransferase (AST), and blood urea nitrogen (BUN), and creatinine level determinations for signs of liver and kidney damages, respectively. […] Since no test animals were recorded to show any signs of toxicity or death, an additional three test animals were given the same dose. […] After the 14 days of observation, the test animals were sedated using Zoletil 50 (50 mg tiletamine base, 50 mg zolazepam base, and 57.7 mg mannitol per mL) at a dose of 50 mg kg^−1 prior to blood extraction using the cardiac puncture method. The animals were euthanized using a carbon dioxide chamber. The blood samples were analyzed for liver and kidney functions. The major organs, such as the liver and kidneys of the test animals, were harvested for tissue mounting and histopathological analysis.

[2] = Tissue distribution of syringic acid in liver and kidney; type: in vivo, Sprague Dawley rats; conditions: for Cmax / Tmax / half-life: Sprague Dawley, rat; for AUC0–72 / AUC0–∞: 100 mg kg^−1 syringic acid or equivalent amount in SYA@MIL-100(Fe)
Experimental: (§1) The reduction in the dosing for the intraperitoneal route is to prevent abdominal distress in the test animal post-administration.
After the blood collection from the test animals, the animals were euthanized, and the organs, such as the liver and kidneys, were taken. The organs were pat-dried and weighed to determine the amount of NSS to be used for homogenization (1 mL of NSS per 700 mg of organ). The organs were homogenized and mixed with equal amounts of absolute ethanol. The mixture was centrifuged at 5000 rpm for 10 min. The serum samples were supplemented with an equal amount of absolute ethanol to facilitate the precipitation of proteins. This procedure was performed until no precipitation occurred. The supernatant was allowed to dry under reduced pressure before HPLC analysis.
(§2) Samples were prepared using the mobile phase consisting of 80:20 water with 0.1% acetic acid: methanol. HPLC analysis was performed using a linear gradient elution at a flow rate of 1.0 mL min^−1. The gradient program started at 80:20 (water with 0.1% acetic acid: methanol) and linearly progressed to 40:60 over 10 min. The column oven temperature was maintained at 30 °C. Detection was carried out using a PDA detector set at 218 nm.

[3] = rabbits, printed as administered intravenously; cited from earlier work
[4] = In vitro drug release study, sample and separation method, with release model fitting; type: physicochemical; conditions: 37.5 °C
Experimental: The release media used were ultrapure water, 0.1 N phosphate-buffered saline (PBS) pH 7.4 for simulated blood pH, PBS pH 6.8 for simulated intestinal fluid, and 0.1 N HCl pH 2.0 for simulated gastric fluid. […] The setup was stirred at 75 rpm at 37.5 ± 0.5 °C. […] A fresh amount of the media was used to compensate for the amount of the release media taken at every time point. The aliquots were centrifuged at 5000 rpm for 10 min. The supernatant liquid was stored for syringic acid quantification using HPLC analysis, while the pellets were returned to the setup. The cumulative amount of syringic acid released from the MIL-100(Fe) was utilized to predict and correlate the behavior of the in vitro release. The experimental data were fitted to five predictable models: zero-order, first-order, Higuchi, Korsmeyer–Peppas, and Hixson–Crowell models. Data fitting was performed by linear regression using Microsoft Excel. The correlation coefficient (r^2) was utilized as a criterion for selecting the best model that describes the release profile in the three media. An r^2 value close to 1 signifies the best correlation.

[5] = Oral and intraperitoneal bioavailability, syringic acid in blood; type: in vivo, Sprague Dawley rats; conditions: Sprague Dawley, rat, serum; for AUC(0-t): read-out: AUC0–72 (converted)
Experimental: as §1
After the given time points, the test animals were sedated using Zoletil 50 (50 mg tiletamine base, 50 mg zolazepam base, and 57.7 mg mannitol per mL) at a dose of […] before blood extraction using the cardiac puncture method. The blood was allowed to clot and centrifuged at 4000 rpm at 4 °C for 5 min to obtain the serum. The sera were mixed with an equal amount of methanol to precipitate proteins and centrifuged again to obtain the deproteinized sera. The procedure was repeated until no precipitation with methanol occurred. The protein-free sera were dried under reduced pressure for prior analysis using HPLC.
as §2

Cmax ([2]; 100 mg kg^−1, kidney, oral, read-out: maximum concentration (Cmax)): 105000 ± 9790 ng/g
Cmax ([2]; 100 mg kg^−1, liver, oral): 163000 ng/g
Cmax ([2]; ip, 25 mg kg^−1, kidney, intraperitoneal, read-out: Cmax): 218000 ± 8730 ng/g
Cmax ([2]; ip, 25 mg kg^−1, liver, intraperitoneal, read-out: Cmax): 40100 ± 560 ng/g
Tmax ([2]; kidney, ip, 25 mg kg^−1): 0.402 h
half-life ([2]; kidney, ip, 25 mg kg^−1): 80.1 ± 54.5 h
Tmax ([2]; kidney, po, 100 mg/kg): 0.47 h
half-life ([2]; kidney, po, 100 mg/kg): 0.626 ± 0.0782 h
Cmax ([2]; kidney, po, 100 mg/kg, read-out: Cmax): 105000 ± 9790 ng/g
Tmax ([2]; liver, ip, 25 mg kg^−1): 0.412 h
half-life ([2]; liver, ip, 25 mg kg^−1): 30.9 ± 18.4 h
Tmax ([2]; liver, po, 100 mg/kg): 8.6 h
half-life ([2]; liver, po, 100 mg/kg): 38.1 ± 13.5 h
Cmax ([2]; liver, po, 100 mg/kg, read-out: Cmax): 16300 ± 3540 ng/g
AUC0–72 ([2]; kidney, oral): 77,103.33 ± 2531.03 μg min g^−1
AUC0–∞ ([2]; kidney, oral): 78,035.27 ± 2458.81 μg min g^−1
AUC0–72 ([2]; liver, oral): 32,000.33 ± 3544.16 μg min g^−1
AUC0–∞ ([2]; liver, oral): 47,401.91 ± 8515.77 μg min g^−1
cumulative release of syringic acid ([4]; 0.1 N HCl, after 30 h): 110.99%
cumulative release of syringic acid ([4]; PBS pH 6.8, after 30 h): 110.93%
cumulative release of syringic acid ([4]; PBS pH 7.4, after 30 h): 117.55%
cumulative release of syringic acid ([4]; water, after 30 h): 94.67%
Tmax ([5]; ip, 25 mg kg^−1): 0.933 h
half-life ([5]; ip, 25 mg kg^−1): 16.7 ± 6.83 h
AUC(0-t) ([5]; ip, 25 mg kg^−1): 72800 ng·h/mL
half-life ([5]; po, 100 mg/kg): 1.98 ± 0.513 h
AUC(0-t) ([5]; po, 100 mg/kg): 23600 ng·h/mL
Structure (SMILES): COc1cc(C(=O)O)cc(OC)c1O [Syringic Acid, 3,5-Dimethoxy-4-hydroxybenzoic acid]
Cmax [1]: 4500 ± 40 ng/mL
Tmax [1]: 8 min
area under the curve [1]: 2010 ± 48.7 ng·h/mL
BUN before administration (Male Sprague Dawley Rats): 14.71 ± 0.51 mg per dL
SGOT before administration (Male Sprague Dawley Rats): 337.30 ± 34.87 units per liter
SGPT before administration (Male Sprague Dawley Rats): 87.96 ± 14.9 units per liter
serum creatinine before administration (Male Sprague Dawley Rats): 0.58 ± 0.01 mg per dL
absolute bioavailability [3]: 86.27%
